Measurements from US5576323A, “Excitatory amino acid receptor antagonists” (Eli Lilly and Company, priority 1994, dated 1996).

tested on: metabotropic glutamate receptors; assay: displacement of 1S,3R-ACPD-sensitive [3H]glutamate binding to rat forebrain crude membranes; details: 100 μM, mixture of enantiomers unless otherwise noted
Protocol: The binding of [^3 H]glutamate was conducted with crude membranes of rat forebrain as described by Schoepp and True. Schoepp and True, Neuroscience Lett., 145, 100-104 (1992), True and Schoepp, Society for Neuroscience Abstracts, 19, 470 (1993) and Wright, McDonald and Schoepp, J. Neurochem. 63: 938-945, 1994.

Compound | Percent displacement of L-[3H]Glu
N[C@@H](CC(Oc1ccccc1)C(=O)O)C(=O)O (some centres unmarked) [Compound 1, 4-Phenoxyglutamic Acid] | 88.0%
CC1(C)CCC(C)(C)c2cc(OC(C[C@H](N)C(=O)O)C(=O)O)ccc21 (some centres unmarked) [Compound 27, 4-(6,7-Dihydro-5,5,8,8-tetramethyl-2-naphthyloxy)glutamic Acid] | 66.5%
NC(CC(Sc1ccccc1)C(=O)O)C(=O)O (centres unmarked) [Compound 2, 4-Benzenethioglutamic Acid] | 77.1%
N[C@@H](CC(Oc1ccc(Oc2ccccc2)cc1)C(=O)O)C(=O)O (some centres unmarked) [Compound 19, 4-(4-Phenoxyphenoxy)glutamic Acid] | 84.6%
CC(=O)c1ccc(OC(CC(N)C(=O)O)C(=O)O)cc1 (centres unmarked) [Compound 9] | 85.8%
NC(CC(Oc1ccc(/C=C/c2ccccc2)cc1)C(=O)O)C(=O)O (centres unmarked) [Compound 48, 4-(4-(4-phenylethenyl)phenoxy)glutamic acid] | 91.9%
CC(C)c1ccc(OC(C[C@H](N)C(=O)O)C(=O)O)cc1 (some centres unmarked) [Compound 6, 4-(4-(Isopropyl)phenoxy)glutamic Acid] | 53.9%
N[C@@H](CC(Oc1ccc(CCCCc2ccccc2)cc1)C(=O)O)C(=O)O (some centres unmarked) [Compound 51, 4-(4-(4-phenylbutyl)phenoxy)glutamic acid] | 81.0%
NC(CC(Sc1ccc2ccccc2c1)C(=O)O)C(=O)O (centres unmarked) [Compound 24, 4-(2-Naphthalenethio)glutamic Acid] | 100.6%
COc1ccc(OC(C[C@H](N)C(=O)O)C(=O)O)cc1 (some centres unmarked) [Compound 5, 4-(4 Methoxyphenoxy)glutamic Acid] | 82.3%
N[C@@H](CC(Oc1ccc2c(c1)OCO2)C(=O)O)C(=O)O (some centres unmarked) [Compound 29, 4-(3,4-Methylenedioxyphenoxy)glutamic Acid] | 89.0%
N[C@@H](CC(Oc1ccc(CCc2ccccc2)cc1)C(=O)O)C(=O)O (some centres unmarked) [Compound 49, 4-(4-(2-phenylethyl)phenoxy)glutamic acid] | 81.5%
N[C@@H](CC(Oc1cccc2ccccc12)C(=O)O)C(=O)O (some centres unmarked) [Compound 25, 4-(1-Naphthyloxy)glutamic Acid] | 98.5%
N[C@@H](CC(Oc1ccc(-c2ccccc2)cc1)C(=O)O)C(=O)O (some centres unmarked) [Compound 12, 4-(4-Phenylphenoxy)glutamic Acid] | 86.7%
N[C@@H](CC(Oc1ccc2oc3ccccc3c2c1)C(=O)O)C(=O)O (some centres unmarked) [Compound 31, 4-(2-Dibenzofuranoxy)glutamic Acid] | 99.4%
N[C@@H](CC(Oc1cccc(-c2ccccc2)c1)C(=O)O)C(=O)O (some centres unmarked) [Compound 13, 4-(3-Phenylphenoxy)glutamic Acid] | 81.6%
N[C@@H](CC(Oc1ccc(OCc2ccccc2)cc1)C(=O)O)C(=O)O (some centres unmarked) [Compound 20, 4-(4-Benzyloxyphenoxy)glutamic Acid] | 67.8%
N[C@@H](CC(Oc1cccc2c1CCCC2)C(=O)O)C(=O)O (some centres unmarked) [Compound 26, 4-(5,6,7,8-Tetrahydro-1-naphthyloxy)glutamic Acid] | 82.1%
N[C@@H](CC(Oc1ccc2cc(Br)ccc2c1Br)C(=O)O)C(=O)O (some centres unmarked) [Compound 23, 4-(1,6-Dibromo-2-naphthyloxy)glutamic Acid] | 99.5%
N[C@@H](CC(Oc1ccc2cc(Br)ccc2c1)C(=O)O)C(=O)O (some centres unmarked) [Compound 22, 4-(6-Bromo-2-naphthyloxy)glutamic Acid] | 93.9%
N[C@@H](CC(Oc1ccc(Cc2ccccc2)cc1)C(=O)O)C(=O)O (some centres unmarked) [Compound 14, 4-(4-Benzylphenoxy)glutamic Acid] | 93.8%
NC(CC(Oc1ccc(CCCc2ccccc2)cc1)C(=O)O)C(=O)O (centres unmarked) [Compound 50] | 75.9%

Compound | Percent displacement of L-[3H]Glu
N[C@@H](CC(Oc1ccc(C(F)(F)F)cc1)C(=O)O)C(=O)O (some centres unmarked) [Compound 10, 4-(4-Trifluoromethylphenoxy)glutamic Acid] | 77.9%
N[C@@H](C[C@H](Oc1ccc2ccccc2c1)C(=O)O)C(=O)O [Compound 45, (2S,4S)-4-(2-Naphthyloxy)glutamic Acid] | 101.5%
CC(C)(C)CC(C)(C)c1ccc(OC(C[C@H](N)C(=O)O)C(=O)O)cc1 (some centres unmarked) [Compound 8, 4-(4-(1,1,3,3-Tetramethylbutyl)phenoxy)glutamic Acid] | 52.3%
NC(CC(Oc1ccc2oc3c(c2c1)CCCC3)C(=O)O)C(=O)O (centres unmarked) [Compound 32, 4-(5,6,7,8-Tetrahydro-2-dibenzofuranoxy)glutamic Acid] | 92.6%
N[C@@H](CC(Oc1ccccc1Cc1ccccc1)C(=O)O)C(=O)O (some centres unmarked) [Compound 15, 4-(2-Benzylphenoxy)glutamic Acid] | 85.9%
N[C@@H](C[C@H](Oc1ccc(-c2ccccc2)cc1)C(=O)O)C(=O)O [Compound 46, (2S,4S)-4-(4-Phenylphenoxy)glutamic Acid] | 85.5%
NC(CC(Oc1ccc(C(c2ccc(Cl)cc2)c2ccccn2)cc1)C(=O)O)C(=O)O (centres unmarked) [Compound 35] | 92.4%
N[C@@H](CC(Oc1ccc(C2CCCC2)cc1)C(=O)O)C(=O)O (some centres unmarked) [Compound 7, 4-(4-Cyclopentylphenoxy)glutamic Acid] | 72.0%
NC(CC(Sc1nncn1Cc1ccccc1)C(=O)O)C(=O)O (centres unmarked) [Compound 36, 4-(4-Benzyl-1,2,4-triazole-3-thio)glutamic Acid] | 81.3%
Cc1ccc(O[C@@H](C[C@H](N)C(=O)O)C(=O)O)cc1 [Compound 44, (2S,4S)-4-(4-Methylphenoxy)glutamic Acid] | 103.2%
N[C@@H](CC(Oc1ccc2c(c1)CCC2)C(=O)O)C(=O)O (some centres unmarked) [Compound 28, 4-(5-Indanyloxy)glutamic Acid] | 97.8%
N[C@@H](CC(Oc1ccc2sccc2c1)C(=O)O)C(=O)O (some centres unmarked) [Compound 34, 4-(5-Benzothiophenyloxy)glutamic Acid] | 95.3%
N[C@@H](CC(Oc1ccc(CC=Cc2ccccc2)cc1)C(=O)O)C(=O)O (some centres unmarked) [Compound 17, 4-(4-(3-Phenylprop-2-enyl)phenoxy)glutamic Acid] | 75.9%
N[C@@H](CC(Sc1n[nH]c(C=Cc2ccccc2Cl)n1)C(=O)O)C(=O)O (some centres unmarked) [Compound 38, 4-(5-((2-Chlorophenyl)ethenyl)-1,2,4-triazole-3-thio)glutamic Acid] | 89.9%
N[C@@H](CC(Oc1ccc(C=Cc2ccc([N+](=O)[O-])cc2)cc1)C(=O)O)C(=O)O (some centres unmarked) [Compound 18, 4-(4-(2-(4-Nitrophenyl)ethenyl)phenoxy)glutamic Acid] | 92.1%
N[C@@H](CC(Oc1ccc2ccccc2c1)C(=O)O)C(=O)O (some centres unmarked) [Compound 21, 4-(2-Naphthyloxy)glutamic Acid] | 95.9%
Cc1ccc(OC(C[C@H](N)C(=O)O)C(=O)O)cc1 (some centres unmarked) [Compound 3, 4-(4-Methylphenoxy)glutamic Acid] | 82.4%
N[C@@H](CC(Oc1ccc2c(c1)Cc1ccccc1-2)C(=O)O)C(=O)O (some centres unmarked) [Compound 30, 4-(2-Fluorenoxy)glutamic Acid] | 93.7%
N[C@@H](CC(Oc1ccc(CCCCCCc2ccccc2)cc1)C(=O)O)C(=O)O (some centres unmarked) [Compound 16, 4-(4-(6-Phenylhexyl)phenoxy)glutamic Acid] | 76.9%
Cc1cc2cc(OC(C[C@H](N)C(=O)O)C(=O)O)ccc2o1 (some centres unmarked) [Compound 33, 4-(2-Methyl-5-benzofuranyloxy)glutamic Acid] | 90.1%
Cc1ccccc1OC(C[C@H](N)C(=O)O)C(=O)O (some centres unmarked) [Compound 4, 4-(2-Methylphenoxy)glutamic acid] | 66.5%
N[C@@H](C[C@H](Oc1ccc2oc3ccccc3c2c1)C(=O)O)C(=O)O [Compound 47, (2S,4S)-4-(2-Dibenzofuranoxy)glutamic Acid] | 107.1%
